This is an account of results in patent publication US9745339B2 (GRAFFINITY PHARMACEUTICALS GMBH, priority 2012, dated 2017).

Data set [1] deals with T1, Bevacizumab (Homo sapiens, UniProt P01857).
T1 construct: 0.5 mg/ml IgG in PBS pH 7.3; ligand immobilized on SEPHAR; Bevacizumab Yield; other: mass eluted (glycine pH 2.5) / mass injected; kd (dissociation constant, Langmuir isotherm); other: Bevacizumab 0.05-5 mg/ml in PBS pH 7.3, 25° C., at least 3 h; qm (maximum capacity); other: mg Bevacizumab per ml of resin; Langmuir isotherm; t0; fused on or other part: Humanized anti-VEGF-A VH domain joined N-terminally to the IGHG1 constant region (engineered, no UniProt entry)
In words: Langmuir isotherms by batch adsorption. Type of data set: binding. Particulars: for Kd: Bevacizumab 0.05-5 mg/ml in PBS pH 7.3, 25° C., at least 3 h, read-out: kd (dissociation constant, Langmuir isotherm) (converted); for qm (maximum capacity): mg Bevacizumab per ml of resin, Langmuir isotherm. The protocol:
Experiments were performed with Bevacizumab as antibody. Parameters of Langmuir isotherms for purified antibody were determined by batch adsorption experiments in 96-well microtiter plates. In each well, 10 μl of sorbent slurry (50% v/v) were mixed with 100 μl of protein solution. Initial concentrations varied from 0.05-5 mg/ml in phosphate-buffered saline (0.15 M NaCl, 20 mM phosphate buffer, pH 7.3; PBS). Reactions were agitated vigorously at 25° C. for at least 3 h. Afterwards, antibody concentration in the supernatants were measured by Bradford assay. Data was evaluated by direct fitting of the values with the Langmuir isotherm equation (1).
Parameters of Langmuir isotherms, i.e. dissociation constants Kd and maximum capacities qm, were determined from the measured concentrations in the supernatants. Parameters were estimated by numerical fitting of the model equation derived by Chase (1)

Data set [2] concerns Tocilizumab. The experiment in a line: Microtiter plate chromatography of resins: binding and elution of Tocilizumab. Particulars: fraction of injected protein bound; 0.5 mg/ml IgG in PBS pH 7.3. Put shortly: (§1)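 About 30 μl resin columns loaded with 3.3 cv IgG at 0.5 mg ml^−1 in PBS (or undiluted HCP), washed with 5 cv PBS, eluted with 5 cv glycine pH 2.5. Fractions quantified by Bradford; bound fraction = (mi−mft)/mi, yield = me/mi.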

Data set [3] relates to Cetuximab. The experiment in a line: Microtiter plate chromatography of resins: binding and elution of Cetuximab. Particulars: fraction of injected protein bound; 0.5 mg/ml IgG in PBS pH 7.3. In outline: as §1
Data set [4] relates to poly-IgG from human serum (h-poly-IgG). In words: Microtiter plate chromatography of resins: binding and elution of human poly-IgG. Particulars: fraction of injected protein bound; 0.5 mg/ml IgG in PBS pH 7.3. Put shortly:
as §1

For data set [5], the target named is T1, Bevacizumab. The experiment in a line: Uptake kinetics by batch adsorption (time-scale of binding). Particulars: time after which 80% of equilibrium saturation occurred; 0.75 mg/ml Bevacizumab in PBS, 25° C. The method, then:
Uptake kinetics was investigated similarly by batch adsorption in 96-well filter plates. Again, 10 μl of sorbent slurry (50% v/v) were mixed with 100 μl of protein solution. […] Reactions were agitated vigorously at 25° C. for up to 80 min. Supernatants were separated rapidly by spinning through filters after 2.5, 5, 10, 20, 40 and 80 minutes and sampled for analysis. Concentrations of the antibody were analyzed by Bradford assay.
For determination of t0.8, measured concentrations in the supernatant were interpolated by fitting of double-exponentials and values of t0.8 were read out from graphs (2).

Data set [6] concerns host cell proteins (HCP). In words: Microtiter plate chromatography of resins: binding of host cell proteins. The arrangement: species or system CHO cell culture. Particulars: fraction of injected undiluted host cell proteins bound. Put shortly: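 Undiluted HCP-containing flowthrough from protein A chromatography of CHO serum-free culture was loaded onto ~30 µl packed resin columns in microtiter-plate format. Columns were washed with 5 cv PBS and eluted with glycine pH 2.5, and fractions were quantified by Bradford. Bound fraction = (injected − flowthrough mass)/injected mass.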

In data set [7] the test system is Palivizumab. In words: Microtiter plate chromatography of resins: binding and elution of Palivizumab. Particulars: fraction of injected protein bound; 0.5 mg/ml IgG in PBS pH 7.3. Put shortly: as §1
The target in data set [8] is T1, Bevacizumab. In words: Microtiter plate chromatography of resins: binding and elution of Bevacizumab. Particulars: for Bevacizumab Bound: fraction of injected protein bound, 0.5 mg/ml IgG in PBS pH 7.3, ligand immobilized on SEPHAROSE 4 FF; for Bevacizumab Yield: mass eluted (glycine pH 2.5) / mass injected. Put shortly:
(§2)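 About 30 μl packed resin columns loaded with 3.3 cv IgG at 0.5 mg ml^−1 in PBS or undiluted HCP, washed with 5 cv PBS, eluted with 5 cv glycine pH 2.5. Protein in fractions by Bradford. Bound fraction = (injected − flowthrough)/injected; yield = eluted/injected; selectivity = Bevacizumab bound fraction / HCP bound fraction, truncated beyond 10.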

Data set [9] is described as follows: Alkaline stability of ligands in 0.5 M sodium hydroxide. The class given is physicochemical. Particulars: 25° C., 8 days, hydrolysis monitored by LC-MS, read-out: t0.5 (half-life) (converted). The method, then: A subset of ligands from Example 1 was tested for its alkaline stability. Ligands were treated with 0.5 M sodium hydroxide at 25° C. for 8 days. Hydrolysis was monitored by LC-MS analysis.

Data set [10] concerns Bevacizumab. In words: Microtiter plate chromatography of resins: binding and elution of Bevacizumab. Particulars: fraction of bound Bevacizumab divided by fraction of bound HCP; truncated for values beyond 10. Put shortly:
as §2

Consider `NCCOCCOCCn1cnc2cc(C(=O)Nc3nnc(-c4ccco4)s3)ccc21`, for which, in data set [1], the Kd is 85.9 µM and the “qm (maximum capacity)” value stood at 37 mg/mL. In addition, in data set [2], the “Tocilizumab Bound” value is given as 100%. Besides, the “Cetuximab Bound” value in data set [3] was found to be 99%. In addition, the “h-poly-IgG Bound” value in [4] is recorded as 100%. The “t0.8 (time-scale of binding)” value in [5] turned out to be 6.6 min. The “HCP Bound” value in data set [6] is given as 4%. The “Palivizumab Bound” value in [7] is 100%. Moreover, in [8], the “Bevacizumab Bound” value is 100% and the “Bevacizumab Yield” value is listed as 99%.
For `N[C@@H](CCC(=O)NCCOCCOCCn1cnc2cc(C(=O)Nc3nnc(-c4ccco4)s3)ccc21)C(=O)NCCOCCOCCn1cnc2cc(C(=O)Nc3nnc(-c4ccco4)s3)ccc21` [Ligand L53], in data set [1], the Kd is 131 µM and the “qm (maximum capacity)” value was 34 mg/mL. In data set [2], the “Tocilizumab Bound” value is listed as 100%. Besides, the “Cetuximab Bound” value in data set [3] stood at 100%. Further, the “h-poly-IgG Bound” value in data set [4] turned out to be 100%. The “t0.8 (time-scale of binding)” value in [5] was 11.8 min. The “HCP Bound” value in data set [6] turned out to be 11%. Also, the “Palivizumab Bound” value in [7] was 100%. In data set [8], the “Bevacizumab Bound” value is recorded as 100% and the “Bevacizumab Yield” value was 96%.
`Cc1nc2cc(C(=O)Nc3nnc(-c4ccco4)s3)ccc2n1CCOCCOCCN`: in data set [1], the Kd is 333 µM and the “qm (maximum capacity)” value stood at 45 mg/mL. Also, the “Tocilizumab Bound” value in data set [2] is 100%. For the same compound, the “Cetuximab Bound” value in [3] worked out at 100%. Also, the “h-poly-IgG Bound” value in [4] is recorded as 100%. The “t0.8 (time-scale of binding)” value in [5] is on record as 8.9 min. Besides, in data set [6], the “HCP Bound” value is 0%. The “Palivizumab Bound” value in [7] is on record as 100%. In addition, in [8], the “Bevacizumab Bound” value was found to be 100% and the “Bevacizumab Yield” value turned out to be 97%.
As for `NCCOCCOCCn1cnc2cc(C(=O)Nc3nc(-c4ccccn4)cs3)ccc21`, the “qm (maximum capacity)” value in data set [1] was 41 mg/mL. Moreover, the “Tocilizumab Bound” value in [2] was 100%. Besides, the “Cetuximab Bound” value in data set [3] is 100%. Further, in data set [4], the “h-poly-IgG Bound” value is on record as 100%. Also, the “t0.8 (time-scale of binding)” value in data set [5] is given as 9.0 min. In data set [6], the “HCP Bound” value stood at 13%. In data set [7], the “Palivizumab Bound” value came to 98%. In addition, in data set [8], the “Bevacizumab Bound” value was 100% and the “Bevacizumab Yield” value was 103%.
On to `Cc1nnc(NC(=O)c2ccc3c(c2)ncn3CCCN)s1` [Ligand L14, 1-(3-Amino-1-propyl)benzimidazole-5-carboxylic acid N-(2-methyl-1,3,4-thiadiazol-5-yl) amide], for which the half-life in data set [9] was over 41.6 days. Also, in data set [1], the Kd was 212 µM and the “qm (maximum capacity)” value worked out at 35 mg/mL. Further, in [2], the “Tocilizumab Bound” value came out at 100%. The “Cetuximab Bound” value in [3] was 100%. The “h-poly-IgG Bound” value in [4] was found to be 92%. Further, in [6], the “HCP Bound” value is listed as 16%. Moreover, in data set [7], the “Palivizumab Bound” value stood at 89%. Moreover, in data set [8], the “Bevacizumab Bound” value worked out at 100% and the “Bevacizumab Yield” value is recorded as 100%.
For the compound `Cn1c(CCCCCN)nc2cc(C(=O)Nc3nnc(-c4ccco4)s3)ccc21` [Ligand L31, 2-(5-Amino-1-pentyl)-1-methylbenzimidazole-5-carboxylic acid N-[5-(2-furyl)-1,3,4-thiadiazol-2-yl]amide], in [1], the Kd is 117 µM and the “qm (maximum capacity)” value was determined as 45 mg/mL. Moreover, in [2], the “Tocilizumab Bound” value is recorded as 100%. The “Cetuximab Bound” value in data set [3] stood at 100%. In addition, the “h-poly-IgG Bound” value in data set [4] is 100%. In addition, in [5], the “t0.8 (time-scale of binding)” value is 5.3 min. The “HCP Bound” value in [6] is reported as 20%. Besides, in [7], the “Palivizumab Bound” value is 100%. In addition, in data set [8], the “Bevacizumab Bound” value is recorded as 100% and the “Bevacizumab Yield” value is 95%.
As to `Cn1nc(NC(=O)c2ccc3c(c2)ncn3CCCN)c2ccccc21` [Ligand L02, 1-(3-Amino-1-propyl)benzimidazole-5-carboxylic acid N-(1-methyl-3-indazolyl) amide], the half-life in [9] is over 41.6 days. In [1], the equilibrium dissociation constant (Kd) is 324 µM and the “qm (maximum capacity)” value worked out at 41 mg/mL. Further, the “Tocilizumab Bound” value in data set [2] was determined as 100%. Also, the “Cetuximab Bound” value in data set [3] was 100%. Besides, in [4], the “h-poly-IgG Bound” value was 100%. Moreover, in data set [6], the “HCP Bound” value was determined as 28%. In addition, in [7], the “Palivizumab Bound” value worked out at 91%. In addition, in data set [8], the “Bevacizumab Bound” value was found to be 100% and the “Bevacizumab Yield” value came to 101%.
With `Cc1nc2cc(C(=O)Nc3nnc(-c4ccco4)s3)ccc2n1CCOCCOCCNC(=O)CC[C@H](N)C(=O)NCCOCCOCCn1c(C)nc2cc(C(=O)Nc3nnc(-c4ccco4)s3)ccc21` [Ligand L54], in [1], the Kd was 46.9 µM and the “qm (maximum capacity)” value is 35 mg/mL. In data set [2], the “Tocilizumab Bound” value amounted to 100%. Further, the “Cetuximab Bound” value in data set [3] stood at 100%. For the same compound, the “h-poly-IgG Bound” value in data set [4] amounted to 100%. Moreover, the “t0.8 (time-scale of binding)” value in data set [5] was 8.4 min. The “HCP Bound” value in data set [6] came out at 4%. Moreover, the “Palivizumab Bound” value in data set [7] came to 100%. Also, in data set [8], the “Bevacizumab Bound” value is 100% and the “Bevacizumab Yield” value is 95%.
Take `Cc1nsc(NC(=O)c2ccc3c(c2)ncn3CCCN)n1` [Ligand L36, 1-(3-Amino-1-propyl)benzimidazole-5-carboxylic acid N-(3-methyl-1,2,4-thiadiazol-5-yl) amide]: the half-life in data set [9] was over 41.6 days. Besides, in data set [1], the Kd was 740 µM and the “qm (maximum capacity)” value came to 35 mg/mL. Moreover, in data set [2], the “Tocilizumab Bound” value is recorded as 90%. In data set [3], the “Cetuximab Bound” value worked out at 99%. Moreover, the “h-poly-IgG Bound” value in data set [4] worked out at 81%. The “HCP Bound” value in [6] worked out at 9%. Further, the “Palivizumab Bound” value in data set [7] was 93%. In data set [8], the “Bevacizumab Bound” value came to 100% and the “Bevacizumab Yield” value was determined as 104%.
Take `Cc1nc2cc(C(=O)Nc3nc(-c4ccncc4)cs3)ccc2n1CCCN` [Ligand L51, 1-(3-Amino-1-propyl)-2-methylbenzimidazole-5-carboxylic acid N-[4-(4-pyridyl)thiazol-2-yl] amide]: the “qm (maximum capacity)” value in data set [1] is 34 mg/mL. Also, in data set [2], the “Tocilizumab Bound” value is reported as 98%. Further, the “Cetuximab Bound” value in data set [3] turned out to be 100%. The “h-poly-IgG Bound” value in data set [4] was found to be 97%. Also, the “t0.8 (time-scale of binding)” value in data set [5] was 8.8 min. The “HCP Bound” value in [6] came out at 15%. The “Palivizumab Bound” value in data set [7] stood at 94%. Also, in data set [8], the “Bevacizumab Bound” value was found to be 100% and the “Bevacizumab Yield” value was 95%.
On to `NCCCn1cnc2cc(C(=O)Nc3nnc(-c4ccncc4)s3)ccc21` [Ligand L21, 1-(3-Amino-1-propyl)benzimidazole-5-carboxylic acid N-[5-(4-pyridyl)-1,3,4-thiadiazol-2-yl]amide], for which the “Tocilizumab Bound” value in data set [2] turned out to be 98%. Also, the “Cetuximab Bound” value in data set [3] was found to be 100%. For the same compound, the “h-poly-IgG Bound” value in data set [4] is 82%. Besides, the “HCP Bound” value in data set [6] amounted to 2%. The “Palivizumab Bound” value in data set [7] is 85%. Moreover, in [8], the “Bevacizumab Bound” value turned out to be 100% and the “Bevacizumab Yield” value is listed as 100%. In addition, the Selectivity in data set [10] was found to be 10.0.
